{"source": "paper PMC10248530", "about": "“Screening the Thermotoga maritima genome for new wide-spectrum nucleoside and nucleotide kinases” (The Journal of Biological Chemistry, 2023)", "type_in_all_cases": "biochemical", "key": {"TmRK": {"target": "T1, TmRK (Thermotoga maritima, UniProt Q9X055)", "T1 construct": "gene rbsK; synthetic gene, full length, expressed in E. coli, 80 °C heat step and Ni-NTA; tag not described; PfkB family", "T1 sequence (Q9X055 1-299)": "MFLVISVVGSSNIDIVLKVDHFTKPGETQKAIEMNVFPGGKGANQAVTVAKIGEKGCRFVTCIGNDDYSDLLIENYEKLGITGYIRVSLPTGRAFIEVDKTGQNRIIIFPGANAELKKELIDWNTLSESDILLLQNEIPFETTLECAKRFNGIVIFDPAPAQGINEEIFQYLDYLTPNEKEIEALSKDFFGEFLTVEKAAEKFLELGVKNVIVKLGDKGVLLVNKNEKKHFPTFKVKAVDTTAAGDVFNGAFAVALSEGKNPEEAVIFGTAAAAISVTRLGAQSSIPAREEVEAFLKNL", "test": "HPLC conversion, […] h", "conditions": "1 mM substrate, 1.2 mM ATP, 2 mM MgCl2, 50 mM KCl, 5 mM DTT, Tris pH 7.6, 37 °C"}, "TmTK": {"target": "T2, TmTK (Thermotoga maritima, UniProt Q9WYN2)", "T2 construct": "gene tdk; synthetic gene, full length, expressed in E. coli, 80 °C heat step and Ni-NTA; tag not described", "T2 sequence (Q9WYN2 whole entry)": "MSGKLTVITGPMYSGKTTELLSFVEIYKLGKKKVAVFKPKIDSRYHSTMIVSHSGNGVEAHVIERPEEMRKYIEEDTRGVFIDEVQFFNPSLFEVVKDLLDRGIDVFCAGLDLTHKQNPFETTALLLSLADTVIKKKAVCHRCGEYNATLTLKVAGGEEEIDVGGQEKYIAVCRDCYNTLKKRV", "test": "HPLC conversion, […] h", "conditions": "1 mM substrate, 1.2 mM ATP, 2 mM MgCl2, 50 mM KCl, 5 mM DTT, Tris pH 7.6, 37 °C"}, "TmAMPK": {"target": "T3, TmAMPK (Thermotoga maritima, UniProt Q9X1I8)", "T3 construct": "gene adk; synthetic gene, full length, expressed in E. coli, 80 °C heat step and Ni-NTA; tag not described", "T3 sequence (Q9X1I8 1-220)": "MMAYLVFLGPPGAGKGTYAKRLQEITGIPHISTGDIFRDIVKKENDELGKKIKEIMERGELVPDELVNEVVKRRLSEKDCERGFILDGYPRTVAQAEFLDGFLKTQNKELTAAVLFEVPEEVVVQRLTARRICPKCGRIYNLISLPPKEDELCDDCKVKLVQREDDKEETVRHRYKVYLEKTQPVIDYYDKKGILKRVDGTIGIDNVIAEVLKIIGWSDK", "test": "TLC or HPLC, […] h cascade", "conditions": "1 mM NMP, 1.2 mM ATP, 5 mM acetyl phosphate with TmAcK (ATP regeneration), 10 mM MgCl2, pH 7.6, 37 °C"}, "TmUMPK": {"target": "T4, TmUMPK (Thermotoga maritima, UniProt Q9X1U0)", "T4 construct": "gene pyrH; synthetic gene, full length, expressed in E. coli, 80 °C heat step and Ni-NTA; tag not described", "T4 sequence (Q9X1U0 1-231)": "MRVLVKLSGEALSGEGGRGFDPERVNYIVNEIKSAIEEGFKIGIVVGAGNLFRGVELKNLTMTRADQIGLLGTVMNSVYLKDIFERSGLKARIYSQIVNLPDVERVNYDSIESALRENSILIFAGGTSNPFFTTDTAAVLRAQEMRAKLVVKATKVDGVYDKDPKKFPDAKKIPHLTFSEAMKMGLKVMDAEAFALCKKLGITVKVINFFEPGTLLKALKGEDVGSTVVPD", "test": "HPLC conversion, […] h", "conditions": "1 mM substrate, 1.2 mM ATP, 2 mM MgCl2, 50 mM KCl, 5 mM DTT, Tris pH 7.6, 37 °C"}, "TmAcK": {"target": "T5, TmAcK (Thermotoga maritima, UniProt Q9WYB1)", "T5 construct": "gene ackA; synthetic gene, full length, expressed in E. coli, 80 °C heat step and Ni-NTA; tag not described", "T5 sequence (Q9WYB1 1-403)": "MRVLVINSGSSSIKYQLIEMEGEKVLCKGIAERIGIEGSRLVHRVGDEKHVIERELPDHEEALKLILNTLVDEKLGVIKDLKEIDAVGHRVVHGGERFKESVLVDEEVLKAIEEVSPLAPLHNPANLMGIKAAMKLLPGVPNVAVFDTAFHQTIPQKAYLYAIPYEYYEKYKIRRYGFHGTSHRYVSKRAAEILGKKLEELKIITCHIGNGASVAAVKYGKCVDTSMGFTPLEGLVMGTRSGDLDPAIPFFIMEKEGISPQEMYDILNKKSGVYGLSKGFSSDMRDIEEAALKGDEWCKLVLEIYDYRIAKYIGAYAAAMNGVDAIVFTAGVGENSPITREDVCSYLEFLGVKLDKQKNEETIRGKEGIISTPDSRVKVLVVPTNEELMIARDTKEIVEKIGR", "test": "HPLC conversion, […] h", "conditions": "1 mM substrate, 1.2 mM acetyl phosphate, 2 mM MgCl2, 50 mM KCl, pH 7.6, 37 °C"}, "TmGMPK": {"target": "T6, TmGMPK (Thermotoga maritima, UniProt Q9X215)", "T6 construct": "gene gmk; synthetic gene, full length, expressed in E. coli, 80 °C heat step and Ni-NTA; tag not described", "T6 sequence (Q9X215 1-207)": "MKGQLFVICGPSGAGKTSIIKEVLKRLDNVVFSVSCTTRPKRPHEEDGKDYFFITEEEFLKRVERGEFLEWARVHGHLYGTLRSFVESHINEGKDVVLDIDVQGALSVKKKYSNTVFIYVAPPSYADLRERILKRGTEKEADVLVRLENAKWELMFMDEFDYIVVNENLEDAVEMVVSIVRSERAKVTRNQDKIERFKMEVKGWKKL", "test": "TLC or HPLC, […] h cascade", "conditions": "1 mM NMP, 1.2 mM ATP, 5 mM acetyl phosphate with TmAcK (ATP regeneration), 10 mM MgCl2, pH 7.6, 37 °C"}, "TmPK": {"target": "T7, TmPK (Thermotoga maritima, UniProt Q9WY51)", "T7 construct": "gene pyk; synthetic gene, full length, expressed in E. coli, 80 °C heat step and Ni-NTA; tag not described", "T7 sequence (Q9WY51 1-466)": "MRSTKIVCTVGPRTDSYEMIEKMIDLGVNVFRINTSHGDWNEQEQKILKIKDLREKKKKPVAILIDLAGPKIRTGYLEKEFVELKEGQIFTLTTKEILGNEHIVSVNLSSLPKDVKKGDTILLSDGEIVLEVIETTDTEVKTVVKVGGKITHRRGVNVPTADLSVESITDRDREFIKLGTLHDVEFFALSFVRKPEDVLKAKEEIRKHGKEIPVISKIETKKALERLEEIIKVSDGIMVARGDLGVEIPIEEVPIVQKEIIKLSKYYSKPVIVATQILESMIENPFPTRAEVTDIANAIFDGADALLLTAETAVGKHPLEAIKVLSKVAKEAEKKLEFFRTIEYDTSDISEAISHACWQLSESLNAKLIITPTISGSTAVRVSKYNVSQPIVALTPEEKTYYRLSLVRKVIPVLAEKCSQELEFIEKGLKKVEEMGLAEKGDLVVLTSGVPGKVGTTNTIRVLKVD", "test": "HPLC conversion, […] h", "conditions": "1 mM substrate, 1.2 mM phosphoenolpyruvate, 2 mM MgCl2, 50 mM KCl, pH 7.6, 37 °C"}, "Tm(d)CMPK": {"target": "T8, Tm(d)CMPK (Thermotoga maritima, UniProt Q9X1F6)", "T8 construct": "gene cmk; synthetic gene, full length, expressed in E. coli, 80 °C heat step and Ni-NTA; tag not described", "T8 sequence (Q9X1F6 1-220)": "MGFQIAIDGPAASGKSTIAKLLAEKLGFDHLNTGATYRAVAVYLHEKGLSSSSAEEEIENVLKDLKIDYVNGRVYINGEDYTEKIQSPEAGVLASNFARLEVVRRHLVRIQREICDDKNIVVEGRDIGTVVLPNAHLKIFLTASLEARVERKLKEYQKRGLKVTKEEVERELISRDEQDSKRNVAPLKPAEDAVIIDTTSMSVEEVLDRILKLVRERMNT", "test": "TLC or HPLC, […] h cascade", "conditions": "1 mM NMP, 1.2 mM ATP, 5 mM acetyl phosphate with TmAcK (ATP regeneration), 10 mM MgCl2, pH 7.6, 37 °C"}}}
{"smiles": "Cc1cn([C@H]2C[C@H](O)[C@@H](CO)O2)c(=O)[nH]c1=O", "note": "[thymidine]", "values": [{"measurement": "HPLC conversion, 19 h", "setting": "TmRK", "result": "it phosphorylates the natural nucleosides thymidine and uridine"}, {"measurement": "HPLC conversion, 19 h", "setting": "TmTK", "result": "TmTK accepted all deoxynucleosides and uridine"}]}
{"smiles": "O=c1ccn([C@@H]2O[C@H](CO)[C@@H](O)[C@H]2O)c(=O)[nH]1", "note": "[uridine]", "values": [{"measurement": "HPLC conversion, 19 h", "setting": "TmRK", "result": "it phosphorylates the natural nucleosides thymidine and uridine"}, {"measurement": "HPLC conversion, 19 h", "setting": "TmTK", "result": "TmTK accepted all deoxynucleosides and uridine"}]}
{"smiles": "Nc1nc(F)nc2c1ncn2[C@@H]1O[C@H](COP(=O)(O)O)[C@@H](O)[C@@H]1O", "note": "[fludarabine phosphate]", "values": [{"measurement": "TLC or HPLC, 19 h cascade", "setting": "TmAMPK", "result": "For TmAMPK, NTP formation was observed for all AMP analogs"}]}
{"smiles": "O=c1ccn([C@@H]2O[C@H](COP(=O)(O)O)[C@@H](O)[C@H]2O)c(=O)[nH]1", "note": "[uridine 5′-monophosphate]", "values": [{"measurement": "HPLC conversion, 19 h", "setting": "TmUMPK", "result": "TmUMPK which accepted all natural riboNMPs"}]}
{"smiles": "O=c1ccn([C@@H]2O[C@H](COP(=O)(O)OP(=O)(O)O)[C@@H](O)[C@H]2O)c(=O)[nH]1", "note": "[uridine 5′-diphosphate]", "values": [{"measurement": "HPLC conversion, 19 h", "setting": "TmAcK", "result": "TmPK and TmAcK accepted all natural riboNDPs and deoxyriboNDPs"}]}
{"smiles": "Nc1ncnc2c1ncn2[C@@H]1O[C@H](COP(=O)(O)O)[C@@H](O)[C@@H]1O", "note": "[vidarabine phosphate]", "values": [{"measurement": "TLC or HPLC, 19 h cascade", "setting": "TmGMPK", "result": "TmGMPK phosphorylated the sugar-modified NMPs araGMP, vidarabine phosphate, and araUMP"}]}
{"smiles": "Nc1nc2c(ncn2[C@@H]2O[C@H](COP(=O)(O)OP(=O)(O)O)[C@@H](O)[C@H]2O)c(=O)[nH]1", "note": "[guanosine 5′-diphosphate]", "values": [{"measurement": "HPLC conversion, 19 h", "setting": "TmPK", "result": "TmPK and TmAcK accepted all natural riboNDPs and deoxyriboNDPs"}]}
{"smiles": "Nc1ccn([C@@H]2O[C@H](COP(=O)(O)O)[C@@H](O)[C@H]2O)c(=O)n1", "note": "[cytidine 5′-monophosphate]", "values": [{"measurement": "HPLC conversion, 19 h", "setting": "TmUMPK", "result": "TmUMPK which accepted all natural riboNMPs"}]}
{"smiles": "Nc1ccn([C@@H]2O[C@H](COP(=O)(O)O)[C@@H](O)[C@@H]2O)c(=O)n1", "note": "[cytarabine phosphate]", "values": [{"measurement": "TLC or HPLC, 19 h cascade", "setting": "Tm(d)CMPK", "result": "Tm(d)CMPK converted the sugar-modified substrates araCMP, araGMP, and araUMP"}]}
